The target of experiment [1] is T1, mTOR (Homo sapiens, UniProt P42345).
T1 construct: endogenous in cells; host or cells: Jurkat cells (ATCC TIB-152, clone E6-1), lysate
The experiment is described as follows: mTOR kinobeads assay (dot blot detection). It counts as binding. The following applies: Table 4, read-out: Inhibition values (IC50) mTOR. The essentials:
(§1)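 Jurkat cell lysate (5 mg/ml protein) was incubated with test compounds and kinobeads (immobilized phenylthiazole and phenylmorpholin-chromen ligands) for 2 h in the cold with shaking. Bead-bound kinase was SDS-eluted and quantified by antibody dot blot with infrared detection. IC50 values came from dose-response curves.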

Experiment [2] deals with T2, PI3K delta (PI3Kd) (Homo sapiens, UniProt O00329).
T2 construct: endogenous in cells; host or cells: Jurkat cells (ATCC TIB-152, clone E6-1), lysate
T2 sequence (O00329 whole entry): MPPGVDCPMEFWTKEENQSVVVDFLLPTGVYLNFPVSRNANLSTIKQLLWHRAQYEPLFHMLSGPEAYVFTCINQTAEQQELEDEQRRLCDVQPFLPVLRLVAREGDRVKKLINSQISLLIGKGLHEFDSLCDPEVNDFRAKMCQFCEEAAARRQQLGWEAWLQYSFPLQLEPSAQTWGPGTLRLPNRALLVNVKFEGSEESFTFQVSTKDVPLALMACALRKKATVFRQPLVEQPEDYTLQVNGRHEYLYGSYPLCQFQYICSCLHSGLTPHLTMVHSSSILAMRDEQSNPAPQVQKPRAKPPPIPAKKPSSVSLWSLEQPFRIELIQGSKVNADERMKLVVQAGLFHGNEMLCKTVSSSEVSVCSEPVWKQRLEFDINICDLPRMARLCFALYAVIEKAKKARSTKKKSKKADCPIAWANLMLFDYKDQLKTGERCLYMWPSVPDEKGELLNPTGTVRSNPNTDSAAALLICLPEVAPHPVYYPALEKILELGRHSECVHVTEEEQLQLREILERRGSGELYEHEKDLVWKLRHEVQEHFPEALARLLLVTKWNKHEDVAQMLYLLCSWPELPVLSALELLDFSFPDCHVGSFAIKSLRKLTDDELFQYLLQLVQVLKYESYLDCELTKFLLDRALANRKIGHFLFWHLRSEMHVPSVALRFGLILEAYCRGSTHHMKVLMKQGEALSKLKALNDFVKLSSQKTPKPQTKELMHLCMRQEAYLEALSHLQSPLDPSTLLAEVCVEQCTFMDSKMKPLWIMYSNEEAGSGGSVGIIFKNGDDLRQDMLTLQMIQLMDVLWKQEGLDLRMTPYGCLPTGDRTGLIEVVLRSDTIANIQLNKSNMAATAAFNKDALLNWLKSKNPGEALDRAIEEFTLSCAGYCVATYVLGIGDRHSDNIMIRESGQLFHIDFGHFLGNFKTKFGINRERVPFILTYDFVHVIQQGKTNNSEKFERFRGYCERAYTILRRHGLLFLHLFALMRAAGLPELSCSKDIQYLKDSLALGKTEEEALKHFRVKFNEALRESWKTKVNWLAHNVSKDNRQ
T2 sequence (P27986 whole entry partner): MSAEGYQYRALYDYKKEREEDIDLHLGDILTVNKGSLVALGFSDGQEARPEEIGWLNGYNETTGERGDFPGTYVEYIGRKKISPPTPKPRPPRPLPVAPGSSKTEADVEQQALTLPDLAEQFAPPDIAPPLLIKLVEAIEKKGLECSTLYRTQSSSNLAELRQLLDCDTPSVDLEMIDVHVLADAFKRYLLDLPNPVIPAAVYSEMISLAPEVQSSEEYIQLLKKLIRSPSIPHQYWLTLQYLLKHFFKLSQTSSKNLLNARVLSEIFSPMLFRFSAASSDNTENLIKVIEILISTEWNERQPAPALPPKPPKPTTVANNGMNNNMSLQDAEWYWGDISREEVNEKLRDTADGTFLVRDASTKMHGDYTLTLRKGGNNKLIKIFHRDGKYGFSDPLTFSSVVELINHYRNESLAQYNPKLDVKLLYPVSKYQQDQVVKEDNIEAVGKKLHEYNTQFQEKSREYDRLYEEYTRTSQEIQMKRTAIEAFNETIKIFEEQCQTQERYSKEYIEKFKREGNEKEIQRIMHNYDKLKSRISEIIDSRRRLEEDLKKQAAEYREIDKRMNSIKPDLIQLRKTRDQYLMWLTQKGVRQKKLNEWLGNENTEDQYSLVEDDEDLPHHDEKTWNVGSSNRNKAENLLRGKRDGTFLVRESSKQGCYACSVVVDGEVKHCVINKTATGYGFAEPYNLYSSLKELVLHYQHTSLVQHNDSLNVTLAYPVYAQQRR
In words: kinobeads assay, PI3K delta (dot blot detection). Type of experiment: binding. The following applies: Table 4, read-out: Inhibition values (IC50) PI3Kd. The procedure, abridged:
as §1

Experiment [3] deals with T3, DNA-dependent protein kinase (DNA-PK) (Homo sapiens, UniProt P78527).
T3 construct: endogenous in cells; host or cells: Jurkat cells (ATCC TIB-152, clone E6-1), lysate
The experiment is described as follows: kinobeads assay, DNA-PK (dot blot detection). The following applies: Table 4, read-out: Inhibition values (IC50) DNAPK. It counts as binding. The essentials:
as §1

For experiment [4], the target named is T4, PI3Kα (Homo sapiens, UniProt P42336).
T4 construct: endogenous in cells; host or cells: Jurkat cells (ATCC TIB-152) lysate, the only lysate described
T4 sequence (P42336 whole entry): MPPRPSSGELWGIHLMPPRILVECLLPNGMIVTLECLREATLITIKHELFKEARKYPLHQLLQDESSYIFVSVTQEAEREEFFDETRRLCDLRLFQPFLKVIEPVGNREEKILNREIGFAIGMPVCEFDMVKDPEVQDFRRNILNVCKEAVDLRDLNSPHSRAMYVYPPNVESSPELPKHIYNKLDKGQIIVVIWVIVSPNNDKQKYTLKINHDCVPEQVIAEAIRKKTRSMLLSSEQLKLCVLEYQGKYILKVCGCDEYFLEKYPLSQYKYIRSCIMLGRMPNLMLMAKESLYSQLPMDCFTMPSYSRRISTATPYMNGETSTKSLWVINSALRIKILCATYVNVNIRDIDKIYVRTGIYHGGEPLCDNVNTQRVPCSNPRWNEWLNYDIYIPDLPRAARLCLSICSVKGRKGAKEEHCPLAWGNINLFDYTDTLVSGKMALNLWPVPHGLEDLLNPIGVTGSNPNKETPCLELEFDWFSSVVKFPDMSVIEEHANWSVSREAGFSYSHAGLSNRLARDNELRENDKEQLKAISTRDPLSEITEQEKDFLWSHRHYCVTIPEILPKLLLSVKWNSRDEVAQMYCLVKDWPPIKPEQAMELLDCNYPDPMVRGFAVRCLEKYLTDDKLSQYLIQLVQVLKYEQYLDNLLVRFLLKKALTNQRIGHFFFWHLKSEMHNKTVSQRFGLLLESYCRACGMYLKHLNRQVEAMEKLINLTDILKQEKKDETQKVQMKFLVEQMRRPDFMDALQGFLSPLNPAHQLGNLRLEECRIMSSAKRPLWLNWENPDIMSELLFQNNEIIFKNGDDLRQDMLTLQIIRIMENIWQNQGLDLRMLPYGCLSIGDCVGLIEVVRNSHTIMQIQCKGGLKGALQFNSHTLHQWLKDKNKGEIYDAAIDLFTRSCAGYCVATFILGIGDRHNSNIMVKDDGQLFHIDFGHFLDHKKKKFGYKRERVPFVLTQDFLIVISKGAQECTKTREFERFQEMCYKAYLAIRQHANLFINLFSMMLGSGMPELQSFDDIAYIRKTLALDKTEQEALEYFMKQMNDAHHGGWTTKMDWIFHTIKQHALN
T4 sequence (P27986 whole entry partner): as the sequence (P27986 whole entry partner) above
The experiment is described as follows: kinobeads assay, PI3K alpha (dot blot detection). Type of experiment: binding. The settings on record: Table 4, read-out: Inhibition values (IC50) PI3Ka.

The target of experiment [5] is T5, PI3Kβ (Homo sapiens, UniProt P42338).
T5 construct: endogenous in cells; host or cells: Jurkat cells (ATCC TIB-152) lysate, the only lysate described
T5 sequence (P42338 whole entry): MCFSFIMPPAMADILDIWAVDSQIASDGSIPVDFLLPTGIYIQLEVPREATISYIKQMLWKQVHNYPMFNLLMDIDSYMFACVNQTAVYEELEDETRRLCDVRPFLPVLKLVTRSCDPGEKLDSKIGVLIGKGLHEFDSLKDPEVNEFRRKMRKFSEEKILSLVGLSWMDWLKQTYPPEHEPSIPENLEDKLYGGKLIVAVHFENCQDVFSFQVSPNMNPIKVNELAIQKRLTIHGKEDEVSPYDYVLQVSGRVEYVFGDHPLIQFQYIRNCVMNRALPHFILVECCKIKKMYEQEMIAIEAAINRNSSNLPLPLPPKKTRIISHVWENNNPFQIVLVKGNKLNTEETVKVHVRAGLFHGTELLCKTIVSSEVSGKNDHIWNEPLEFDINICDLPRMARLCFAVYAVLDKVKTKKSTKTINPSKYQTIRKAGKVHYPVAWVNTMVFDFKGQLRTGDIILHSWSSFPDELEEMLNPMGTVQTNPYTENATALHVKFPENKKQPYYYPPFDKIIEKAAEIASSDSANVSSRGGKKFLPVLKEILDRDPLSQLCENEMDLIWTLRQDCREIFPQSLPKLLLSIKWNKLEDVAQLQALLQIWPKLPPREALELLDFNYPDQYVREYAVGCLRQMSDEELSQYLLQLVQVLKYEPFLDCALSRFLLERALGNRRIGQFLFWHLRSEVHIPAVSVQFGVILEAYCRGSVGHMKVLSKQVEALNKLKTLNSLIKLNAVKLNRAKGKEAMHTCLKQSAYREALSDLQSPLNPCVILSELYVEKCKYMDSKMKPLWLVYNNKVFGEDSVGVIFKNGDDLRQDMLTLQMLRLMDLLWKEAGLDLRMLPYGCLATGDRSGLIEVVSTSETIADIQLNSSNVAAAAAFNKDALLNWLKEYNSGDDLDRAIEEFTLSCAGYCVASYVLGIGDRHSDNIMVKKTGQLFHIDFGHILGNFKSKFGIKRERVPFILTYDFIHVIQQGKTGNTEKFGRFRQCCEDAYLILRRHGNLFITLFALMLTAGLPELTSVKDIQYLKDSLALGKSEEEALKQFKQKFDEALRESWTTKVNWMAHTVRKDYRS
T5 sequence (P27986 whole entry partner): as the sequence (P27986 whole entry partner) above
The experiment is described as follows: kinobeads assay, PI3K beta (dot blot detection). Type of experiment: binding. The settings on record: Table 4, read-out: Inhibition values (IC50) PI3Kb.

Experiment [6] has as its target T6, PI3Kγ (Homo sapiens, UniProt P48736).
T6 construct: endogenous in cells; host or cells: Jurkat cells (ATCC TIB-152) lysate, the only lysate described
In words: kinobeads assay, PI3K gamma (dot blot detection). The following applies: Table 4, read-out: Inhibition values (IC50) PI3Kg. It counts as binding.

Experiment [7] deals with S6RP serine-240/244 phosphorylation in HEK293T/17 cells. In words: In vitro phospho-S6 cellular assay (pS6RP S240/244). Type of experiment: cell-based. The following applies: Homo sapiens, Table 6, 2 hours, S6RP Ser240/244, read-out: pS6 (phospho-S6 cell assay data, activity level). The procedure, abridged:
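HEK293T/17 cells in DMEM with 2% FCS treated with 8 compound concentrations (0.1% DMSO) for 2 h at 37 °C, then lysed. Phospho-S6RP Ser240/244 or phospho-Akt Ser473 quantified by MesoScale sandwich immunoassay with Sulfo-Tag detection; IC50 from variable-slope sigmoidal fit.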

The subject of experiment [8] is Akt serine-473 phosphorylation in HEK293T/17 cells. In words: In vitro phospho-Akt cellular assay (pAkt S473). Type of experiment: cell-based. The following applies: Homo sapiens, Table 6, 2 hours, Akt Ser473, read-out: pAKT (Phospho-Akt cell assay data, activity level). The text has this: In Vitro Phospho-S6 and Phospho-Akt Cellular Assay
Activation of mTOR signaling results in phosphorylation of several downstream targets. In cells, mTOR exists in two different protein complexes. The mTOR Complex-1 (mTORC1) phosphorylates and activates S6 Kinase 1 (S6K1) and S6 Kinase 2 (S6K2) (also known as p70S6K) which then phosphorylate S6 Ribosomal Protein (S6RP) (also known as RPS6). S6RP is phosphorylated on serine 235, serine 236, serine 240 and serine 244 by both pS6K1 and pS6K2. The mTOR Complex-2 (mTORC2) phosphorylates AKT on serine 473 which activates the AKT signaling pathway.
The assay measures a test compound's inhibition of S6RP serine-240/244 phosphorylation and inhibition of Akt serine-473 phosphorylation in human embryonic kidney derived HEK293T/17 cells (ATCC CRL-11268).
The HEK293T/17 cell line is maintained in DMEM media (Invitrogen catalogue number 41965-039) supplemented with 10% FCS at 37° C. in a 5% CO2 humidified incubator.
Cells are seeded in 96-well plates at 40,000 cells/well (pS6RP S240/244 assay) or 80,000 cells/well (pAkt 5473 assay) in 90 μl growth media (DMEM, 2% FCS). Plates are incubated for 1 hour in a humidified incubator to allow the cells to adhere. Cells are treated with 8 concentrations of test compounds or DMSO alone for controls (final DMSO concentration 0.1%) and incubated at 37° C. for 2 hours. Then 20 μl of 5× concentrated lysis buffer (750 mM NaCl, 100 mM Tris pH7.4, 5 mM EDTA, 5 mM EGTA, 5% Triton X-100) is added, plates are sealed and incubated for 15 minutes at 4° C. with gentle shaking. After cell lysis, 25 μl cell lysate is transferred to a MesoScale plate coated with an antibody to pS6RP Ser240/244 (MesoScale Discovery K150DGD-3) or an antibody to pAkt Ser 473 (MesoScale Discovery K151DGD-3). Plates have been blocked before by incubation with 150 μl MesoScale Discovery Blocking Solution-A for 1 hour at room temperature followed by washing with 150 μl 1× Tris wash buffer per well. After the transfer of the cell lysate to the MSD plate, the pS6RP (or pAkt) protein is captured on the coated antibody by incubation at room temperature for 1 hour with gentle shaking. After the capture step the plate is washed three times with 150 μl of 1× Tris wash buffer per well. Then 25 μl detection antibody conjugated with a Sulfo-Tag is added and incubated for 1 hour at room temperature with gentle shaking. Subsequently the antibody solution is removed and the plate is washed 3 times with 150 μl 1× Tris wash buffer per well and 150 μl Read buffer is added. The plates are analysed on a MSD 2400 Plate Reader (MesoScale Discovery). Data analysis is performed using nonlinear regression for a sigmoidal dose-response with a variable slope.

T6 sequence (P48736 whole entry): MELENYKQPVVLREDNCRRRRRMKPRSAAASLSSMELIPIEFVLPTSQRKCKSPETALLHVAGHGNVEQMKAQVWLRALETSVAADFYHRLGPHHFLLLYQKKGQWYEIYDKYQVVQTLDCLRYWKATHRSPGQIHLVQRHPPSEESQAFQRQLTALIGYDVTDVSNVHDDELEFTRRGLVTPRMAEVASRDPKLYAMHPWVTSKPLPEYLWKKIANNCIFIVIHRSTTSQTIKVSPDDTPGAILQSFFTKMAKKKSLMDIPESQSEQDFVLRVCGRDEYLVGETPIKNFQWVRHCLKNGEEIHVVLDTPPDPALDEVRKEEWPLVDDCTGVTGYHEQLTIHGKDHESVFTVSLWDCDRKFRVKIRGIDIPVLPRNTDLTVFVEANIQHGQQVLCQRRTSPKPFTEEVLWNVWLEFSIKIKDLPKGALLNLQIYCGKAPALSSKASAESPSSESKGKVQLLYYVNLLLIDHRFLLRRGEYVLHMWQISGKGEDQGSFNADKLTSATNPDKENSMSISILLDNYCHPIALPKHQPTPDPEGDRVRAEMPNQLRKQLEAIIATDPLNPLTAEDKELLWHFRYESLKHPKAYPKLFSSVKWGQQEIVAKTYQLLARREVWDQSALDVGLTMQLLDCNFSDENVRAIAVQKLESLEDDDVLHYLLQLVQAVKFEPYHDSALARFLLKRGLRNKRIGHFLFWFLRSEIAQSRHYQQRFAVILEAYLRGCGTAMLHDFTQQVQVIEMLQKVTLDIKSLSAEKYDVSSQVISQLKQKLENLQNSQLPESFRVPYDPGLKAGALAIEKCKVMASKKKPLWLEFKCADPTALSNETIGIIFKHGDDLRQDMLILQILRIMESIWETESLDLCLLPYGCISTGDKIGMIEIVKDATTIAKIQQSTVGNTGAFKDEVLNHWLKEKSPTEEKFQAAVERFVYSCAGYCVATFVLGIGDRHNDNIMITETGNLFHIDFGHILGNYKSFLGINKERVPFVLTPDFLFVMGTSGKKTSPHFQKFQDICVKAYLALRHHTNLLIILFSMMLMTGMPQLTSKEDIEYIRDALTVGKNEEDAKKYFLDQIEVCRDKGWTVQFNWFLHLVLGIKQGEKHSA

Turning to `C[C@@H](CO)NC(=O)Nc1ccc(-c2cc(-c3cc(F)ccc3S(C)(=O)=O)nc(N3CCOC[C@@H]3C)n2)cc1` [Example 74, 1-(4-(6-(5-fluoro-2-(methylsulfonyl)phenyl)-2-((S)-3-methylmorpholino)pyrimidin-4-yl)phenyl)-3-((S)-1-hydroxypropan-2-yl)urea], the IC50 in experiment [1] is 0.1 to 1 µM; in experiment [2], no less than 10 µM; in experiment [3] it was no less than 10 µM; in experiment [4], no less than 10 µM; in experiment [5] it was no less than 10 µM; in experiment [6], no less than 10 µM. The IC50 in experiment [7] and in experiment [8] was less than 0.1 µM in each case.
With `C[C@H]1COCCN1c1cc(-c2cc(F)ccc2S(C)(=O)=O)nc(-c2ccc(NC(=O)NC3CC3)cc2)n1` [Example 77, (S)-1-cyclopropyl-3-(4-(4-(5-fluoro-2-(methylsulfonyl)phenyl)-6-(3-methylmorpholino)pyrimidin-2-yl)phenyl)urea], the IC50 is 0.1 to 1 µM in experiment [1]; no less than 10 µM in experiment [2]; no less than 10 µM in experiment [3]; no less than 10 µM in experiment [4]; no less than 10 µM in experiment [5]; no less than 10 µM in experiment [6]. For the same molecule, the IC50 in experiment [7] and in experiment [8] was less than 0.1 µM each time.
Regarding `C[C@H]1COCCN1c1cc(-c2cc(F)ccc2S(C)(=O)=O)nc(-c2ccc(NC(=O)NCCO)cc2)n1` [Example 78, (S)-1-(4-(4-(5-fluoro-2-(methylsulfonyl)phenyl)-6-(3-methylmorpholino)pyrimidin-2-yl)phenyl)-3-(2-hydroxyethyl)urea], the IC50 in experiment [1] was less than 0.1 µM; in experiment [2] it was no less than 10 µM; in experiment [3] it was no less than 10 µM; in experiment [4], no less than 10 µM; in experiment [5], no less than 10 µM; in experiment [6], no less than 10 µM. The IC50 in experiment [7] and in experiment [8] was less than 0.1 µM each time.

The values are drawn from patent publication US9249129B2, “Morpholino substituted urea derivatives as mTOR inhibitors” (CELLZOME LIMITED, priority 2010, dated 2016).
